Results reported in paper PMC7312911, “Affibody-Binding Ligands” (International Journal of Molecular Sciences, 2020).
Where no end group is shown, it is not given here.

Legend:
anti-HSA affibody [1] = test: Affibody binding/elution in non-competitive conditions on peptide–Toyopearl, anti-HSA affibody; conditions: 100 μL of 50:50 labeled anti-HSA and anti-IgG affibodies, total 1 mg/mL, in PBS pH 7.4; 50 μL resin; 1 h, room temperature; elution 0.2 M acetate pH 3.8; fluorescence spectroscopy
Description: (§1) Ten peptides selected by sequence homology, namely, ARISRQ, IGKQRI, DIRIIR, QAAKRI, SHHSQR, DIHIRR, DHHKKA, DIRIQR, KSAYHS, and IHQRGQ, were tested as ligand candidates through binding studies in non-competitive conditions (pure affibody). The peptides were synthesized directly on Toyopearl AF-Amino 650 M resin by Fmoc/tBu synthesis; polymethacrylate-based Toyopearl resin was chosen as a chromatographic support for secondary screening in place of ChemMatrix, owing to its chemical resistance to the reagents and solvents used for peptide synthesis, low non-specific protein binding, and mechanical strength. The peptide–Toyopearl adsorbents were individually incubated with a 1:1 solution of AF594-labeled anti-HSA affibody and AF488-labeled anti-IgG affibody at the concentration of 1 mg/mL for 1 h at room temperature under gentle rotation. After washing with PBS, affibody elution (EL) was performed under acidic conditions (pH 3.8), followed by resin regeneration (R) using a harsh denaturing buffer (0.45% w/v 3-[(3-cholamidopropyl)dimethylammonio]-1-propanesulfonate (CHAPS) in 0.1 M glycine, pH 2.5). The amounts of affibodies in the unbound (UB), elution (EL), and regeneration (R) fractions, measured by fluorescence spectroscopy, were utilized to calculate the values of flow-through (FT) ratio (mass of affibody in the FT fraction vs. mass of fed antibody) and yield (mass of affibody eluted vs. mass of bound affibody), listed in Table 2.
(§2) The identified sequences were synthesized on Toyopearl AF-Amino 650 M resin by Fmoc/tBu synthesis to be tested for affibody binding in non-competitive mode. Aliquots of 50 μL of each peptide–Toyopearl adsorbent were transferred in a PCR tube, swollen in 20% methanol overnight, and copiously washed in 20% methanol to remove any residual chemical from peptide synthesis, before equilibrating in Milli-Q water followed by PBS, pH 7.4. Next, 100 μL of 50:50 solution of fluorescently labeled anti-HSA and anti-IgG affibodies (Section 2.3) at a total 1 mg/mL affibody concentration were incubated with every aliquot of peptide–Toyopearl resin for 1 h at room temperature under gentle rotation. Following incubation, the resins were pelleted by centrifugation, and the supernatant was collected and marked as “unbound” (UB) fraction. The resins were then washed with PBS and the supernatant were combined with the UB fractions. Protein elution (EL) was then performed by incubating the resins with 0.2 M acetate buffer at pH 3.8 (0.2 M acetic acid and 0.2 M sodium acetate at a 7:3 ratio) for 30 min at room temperature, and then by washing with the same elution buffer. Regeneration (R) was then performed by incubating the adsorbents with 100 mM glycine buffer at pH 2.5 added with 0.45% w/v CHAPS, at 4 °C for overnight. The collected elution fractions (EL and R) were finally equilibrated to neutral pH using PBS, pH 7.4. Finally, both UB and E fractions were diluted in PBS and analyzed by fluorescence spectroscopy.

[2] = tested on: 1:1 solution of AF594-labeled anti-HSA affibody and AF488-labeled anti-IgG affibody; test: Affibody binding/elution in non-competitive conditions on peptide–Toyopearl, affibody mixture; conditions: for Yield (mass of affibody eluted vs. mass of bound affibody): non-competitive (pure affibody), PBS pH 7.4, 1 h, room temperature, elution pH 3.8, fluorescence spectroscopy; for capture of IgG-binding and HSA-binding affibodies compared: non-competitive, pure affibodies 1:1
Description: as §1, §2

anti-IgG affibody [3] = test: Affibody binding/elution in non-competitive conditions on peptide–Toyopearl, anti-IgG affibody; conditions: 100 μL of 50:50 labeled anti-HSA and anti-IgG affibodies, total 1 mg/mL, in PBS pH 7.4; 50 μL resin; 1 h, room temperature; elution 0.2 M acetate pH 3.8; fluorescence spectroscopy
Description: as §1, §2

anti-IgG affibody [4] = test: Affibody purification in competitive conditions (clarified E. coli cell lysate), anti-IgG affibody; type: binding; conditions: elution pH 3.8; for Recovery, anti-IgG affibody: 0.4 mg/mL affibody and 2 mg/mL E. coli HCPs, 200 μL feed, room temperature, eluted vs. loaded amount, fluorescence spectroscopy; for Purity, anti-IgG affibody: competitive, clarified E. coli cell lysate, densitometric analysis of EL lanes, SDS-PAGE
Description: (§3) The adsorbents IGKQRI–GSG–Toyopearl, IHQRGQ–GSG–Toyopearl, KSAYHS–GSG–Toyopearl, and DIRIIR–GSG–Toyopearl resins were utilized to evaluate the ability of the selected sequences to purify affibody molecules from complex sources. To this end, a feed sample was prepared by spiking fluorescently labeled anti-HSA and anti-IgG affibodies at a 1:1 molar ratio into clarified E. coli cell lysate, to obtain a final concentration of 0.4 mg/mL of affibody and 2 mg/mL of bacterial HCPs. The peptide–Toyopearl adsorbents were incubated with 200 μL of feed sample for 30 min at room temperature under gentle rotation. The unbound (UB) and elution (EL) fractions were analyzed by fluorescence spectroscopy and SDS-PAGE (Figure 1) to determine the values of recovery and purity for both affibody products (Table 3). It is noted that the mass of the affibody product measured electrophoretically appears to be double than the theoretical 6.5 kDa; this is likely due to dimerization of the affibodies by formation of a disulfide bond through their C-terminal cysteine residues.
(§4) Three sequences selected in Section 2.6 were then evaluated for affibody binding in competitive mode. Aliquots of 100 μL of the peptide–Toyopearl adsorbents were swollen and equilibrated as described in Section 2.6. The feed sample was prepared by combining 100 μL of equimolar solution of fluorescently labeled anti-HSA and anti-IgG affibodies at a total 2 mg/mL affibody concentration with 400 μL of clarified E. coli cell lysate at the adjusted concentration of host cell proteins (HCPs) of 2.5 mg/mL, to obtain a final concentration of 0.4 mg/mL of affibody and 2 mg/mL of HCPs. Next, 200 μL of feed samples were incubated with each aliquot of wet peptide–Toyopearl resin for 2 h at room temperature under gentle rotation. After incubation, unbound (UB) and elution (EL) fractions were obtained as described in Section 5.2.5; they were then analyzed by fluorescence spectroscopy to determine the yield of both affibodies and finally by SDS-PAGE to determine the total purity of the eluted affibody products.
(§5) The collected fractions were desalted into phosphate buffer at pH 7.4 using Amicon Ultra 0.5-mL centrifugal filters (3 kDa MWCO). Based on the total protein concentration determined by Bradford assay, the collected fractions were adjusted at a total protein concentration of 0.1 mg/mL, diluted 1:1 with 2× Laemmli sample buffer containing 5% β-mercaptoethanol, and incubated at 100 °C for 5 min. Next, 20 µL of each sample was loaded onto each well of a 12% Mini PROTEAN® TGX precast electrophoresis gel. Then, 10 µL of Precision Plus Protein TM Dual Color Standards diluted 100× in Laemmli sample buffer was loaded in the first and last wells. Gels were electrophoresed at 100 V constant for 95 min using a Mini PROTEAN Tetra Cell (Bio-Rad, Hercules, CA, USA) linked to a PowerPac 300 power supply (Bio-Rad). Gels were fixed in 10% acetic acid, 40% ethanol in MilliQ water for 1 h. Fixed gels were washed with MilliQ water and Coomassie stained. Imaging and densitometric analysis were performed with a GelDoc XR+ (Bio-Rad) and Image Lab software (Bio-Rad) with band intensities scaled to the intensity of an affibody standard.

anti-HSA affibody [5] = test: Affibody purification in competitive conditions (clarified E. coli cell lysate), anti-HSA affibody; type: binding; conditions: elution pH 3.8; for Recovery, anti-HSA affibody: 0.4 mg/mL affibody and 2 mg/mL E. coli HCPs, 200 μL feed, room temperature, eluted vs. loaded amount, fluorescence spectroscopy; for Purity, anti-HSA affibody: competitive, clarified E. coli cell lysate, densitometric analysis of EL lanes, SDS-PAGE
Description: as §3, §4, §5

[6] = tested on: anti-IgG, anti-HSA, and anti-ErbB2 affibodies; test: Langmuir adsorption isotherms, all three affibodies; type: binding
Description: The adsorption isotherms of anti-IgG, anti-HSA, and anti-ErbB2 affibodies on IGKQRI–GSG–Toyopearl resin were performed as described in prior work [37, 51]. Toyopearl resins functionalized with human IgG and serum albumin were utilized as corresponding positive controls, while Toyopearl® HW-40F was utilized as a negative control. Briefly, the adsorbents were incubated with solutions of target affibody at concentrations ranging between 0.01 and 2 mg/mL until binding equilibrium was reached (2.5 h). The values of bound affibody per volume of resin (q) and the corresponding equilibrium concentration of unbound affibody (C*) were fit to a Langmuir isotherm model to determine the value of maximum binding capacity (Qmax) and dissociation constant (KD,Langmuir).
Eight 50-µL aliquots of IGKQRI–GSG–Toyopearl resin were initially equilibrated in PBS at pH 7.4. Eight 0.2-mL solutions of anti-hIgG, anti-hHSA, and anti-ErbB2 affibodies in PBS at concentrations ranging from 0.01 to 2 mg/mL were prepared and incubated with the aliquots of IGKQRI–GSG–Toyopearl resin for 2.5 h at room temperature under mild shaking. […] The supernatant and washing solutions were combined and analyzed by fluorescence spectroscopy to determine the equilibrium concentration of affibody solution. The mass of affibody bound by the resin was determined by mass balance. […]

| Substance | mFT/mE (Anti-HSA), flow-through elution mass ratio (anti-HSA affibody [1]) | Yield (mass of affibody eluted vs. mass of bound affibody) [2] | mFT/mE (Anti-IgG), flow-through elution mass ratio (anti-IgG affibody [3]) | Recovery, anti-IgG affibody (anti-IgG affibody [4]) | Purity, anti-IgG affibody (anti-IgG affibody [4]) | Recovery, anti-HSA affibody (anti-HSA affibody [5]) | Purity, anti-HSA affibody (anti-HSA affibody [5]) | capture of IgG-binding and HSA-binding affibodies compared [2] | binding of all target affibodies compared ([6]; Langmuir isotherms) | binding capacity (Qmax), summary ([6]; static binding, pure affibodies, summary over three affibodies) |
| --- | --- | --- | --- | --- | --- | --- | --- | --- | --- | --- |
| ARISRQ | 1.709 | 51.7% | 0.885 |  |  |  |  |  |  |  |
| DHHKKA | 2.039 | 38.5% | 1.256 |  |  |  |  |  |  |  |
| DIHIRR | 0.473 | 40.4% | 1.277 |  |  |  |  |  |  |  |
| DIRIIR | 1.553 |  | 0.707 | 78.3% ± 2.5% | 96.5% | 74.9% ± 3.6% | 96.2% |  |  |  |
| DIRIQR | 2.401 | 39.5% | 0.445 |  |  |  |  |  |  |  |
| IGKQRI [IGKQRI] | 0.628 |  | 0.448 | 97.2% ± 1.5% | 95.8% | 95.2% ± 4.6% | 94.1% | equal capture of IgG-binding and HSA-binding affibodies | comparable affinity and binding capacity | ~ 5 mg affibody per mL of resin |
| IHQRGQ | 0.781 |  | 0.446 | 95.3% ± 4.5% | 93.1% | 96.1% ± 2.4% | 92.6% | equal capture of IgG-binding and HSA-binding affibodies |  |  |
| KSAYHS | 0.796 |  | 0.405 | 88.6% ± 3.4% | 96.4% | 89.5% ± 0.7% | 96.3% | equal capture of IgG-binding and HSA-binding affibodies |  |  |
| QAAKRI | 0.801 | 35% | 2.245 |  |  |  |  |  |  |  |
| SHHSQR | 1.387 | 44.3% | 1.238 |  |  |  |  |  |  |  |
